Results as given in patent US20230183293A1, “METHODS OF TREATING OR PREVENTING CORONAVIRUS INFECTION” (priority 2021, published 2023).
Read-outs that look alike come from different tables or passages of the source.

Assays:
[1] = test system: SARS-CoV-2; test: CPE reduction assay in Vero E6 cells with pharmaceutical formulations (Example 8); assay type: cell-based; conditions: for inhibitory / antiviral effect in CPE reduction assay: FIGS. 7D-7E
[2] = test system: SARS-CoV-2; test: CPE reduction assay in Vero E6 cells with pharmaceutical formulations dissolved in DMSO (Example 6); assay type: cell-based; conditions: Severe acute respiratory syndrome coronavirus 2, Vero C1008, 72 h; Vero E6, MOI 0.015, three days, pharmaceutical formulation in DMSO, estimated concentrations; read-out: EC50, inhibition of virus-induced cell death
[3] = test system: SARS-CoV-2 virions; conditions: 2 h at 37° C., below the limit of detection
[4] = Binding to plastic labware (coated or uncoated 96-well plates), remaining concentration by LC-MS/MS (Example 12); assay type: physicochemical; conditions: plastic labware
Procedure: Plastic labware was coated with three different coating agents: 100 mg/ml bovine serum albumin in PBS (BSA; Sigma), 1% polyethylene glycol 3350 in MilliQ water (PEG-3350; Sigma) and 0.2% polysorbate 40 in MilliQ water (Tween40; Fluka). In addition, the plastic materials with VCS by treating them with a 500 mM VCS solution in DMSO (Sigma). Labware, including all tubes, tips and culture plastics, was filled with blocking solution and incubated for 2 h at room temperature with rocking to homogenously coat the surfaces. After rinsing twice with MilliQ water, the items were left to dry at room temperature until further use in experiments. Solutions of 0.2 and 2 μM of VCS were prepared in EMEM-2% FCS and 100 μl of each VCS solution was incubated in coated 96-well plates. After a 2 h incubation at 37° C. the remaining VCS concentration was measured by validated LC-MS/MS.

[5] = test system: SARS-CoV-2; test: microbe, parasite or virus in culture; assay type: cell-based
[6] = test system: SARS-CoV-2; conditions: HuH7.5, Calu-3 and Vero cells; Dittmar et al.; cited from earlier work
[7] = test system: Vero E6 cells; conditions: Vero E6, 3 days
[8] = Phase 2b study in de novo kidney transplant recipients (Example 3); assay type: in vivo, human; conditions: for blood trough level: standard dose 0.05 mg/kg BID
Procedure: De novo kidney transplant recipients were enrolled into a 6 month, Phase 2b, multi-center, randomized, open-label study. […] In addition, all subjects received induction immunosuppression with intravenous daclizumab or basiliximab (dosed per product labeling) and received concomitant treatment during the study with MMF and corticosteroids. […] Adverse reactions were recorded and renal graft rejection was assessed based on Banff classification. At 3-month and 6-month time points, adverse reactions were analyzed. Graft survival and patient survival were also recorded at the 6-month time point.

[9] = test system: SARS-CoV-2; test: microbe, parasite or virus in culture; assay type: cell-based; conditions: Severe acute respiratory syndrome coronavirus 2, Vero C1008; solutions prepared from pure powder; read-out: EC50, inhibition of SARS-CoV-2 in Vero E6 cells
[10] = test system: Calu-3 cells; conditions: plastic, Calu-3, FIG. 6D
[11] = test system: SARS-CoV-2; assay type: cell-based; conditions: 3.2 μM, glass labware, Calu-3, 24 h p.i., FIG. 6A

## COc1c(C)c2c(c(O)c1C/C=C(\C)CCC(=O)OCCN1CCOCC1)C(=O)OC2 [MMF, mycophenolate mofetil]
[1]
  inhibitory / antiviral effect in CPE reduction assay: apparent antiviral effect

## COc1c(C)c2c(c(O)c1C/C=C(\C)CCC(=O)O)C(=O)OC2 [mycophenolate, mycophenolic acid]
[2]
  EC50: 3.1 µM

## CCO [50% ethanol, ethanol]
[3]
  amount of infectious SARS-CoV-2 remaining: < 100 PFU/ml

## C=CC[C@@H]1/C=C(\C)C[C@H](C)C[C@H](OC)[C@H]2O[C@@](O)(C(=O)C(=O)N3CCCC[C@H]3C(=O)O[C@H](/C(C)=C/[C@@H]3CC[C@@H](O)[C@H](OC)C3)[C@H](C)[C@@H](O)CC1=O)[C@H](C)C[C@@H]2OC [tacrolimus, reference compound]
[4]; 0.8 μM stock solution, 0 h
  Conc: 850 nM
[4]; 0.8 μM stock solution, 2 h
  % rem: 76%
  Conc: 650 nM
[4]; 2 h
  loss by binding to plastic: 24%
[5]; Severe acute respiratory syndrome coronavirus 2, Vero C1008, FIG. 1C, Vero E6 CPE reduction, read-out: EC50 inhibition of SARS-CoV-2
  EC50: ~25 µM
[5]; dosages up to 25 μM
  protection of infected cells from virus-induced cytopathic effects: did not protect
[6]
  activity on SARS-CoV-2 replication in a previous report: no activity
[7]
  concentration after which compound-related cytotoxicity was observed: above 25 μM
[7]; listed as Tacrolimus
  concentration after which compound-related cytotoxicity was observed: > 25000 nM
[1]; Severe acute respiratory syndrome coronavirus 2, Vero C1008, 72 h, Vero E6, 3 days, read-out: EC50, inhibition of virus-induced cell death
  EC50: 10 ± 1 µM
[8]; months 0-3
  blood trough level: 7 to 20 ng/mL
[8]; months 0-6 as printed
  blood trough level: 5 to 15 ng/mL
[8]; standard dose group
  Nankivell eGFR: 69 mL/min
[8]; standard dose, 6 month
  Graft survival: 97.7%
  NODAT (new onset of diabetes after transplant) incidence: 16.4%
  Patient survival: 97.7%
[8]; standard dose, 6 month, listed as Tacrolimus
  NODAT (new onset of diabetes after transplant) incidence: 16.4%
[8]; standard dose, N = 86, 6 month post-transplantation
  Central BPAR (biopsy proven acute rejection), patients (incidence): 5 (5.8%)
[2]
  EC50: 12 µM
[9]
  EC50: ~15 µM
[10]
  cytotoxicity: did not display much cytotoxicity
[11]
  reduction in SARS-CoV-2 infectious progeny titers: ~0.5 log

## CO[C@H]1C[C@@H]2CC[C@@H](C)[C@@](O)(O2)C(=O)C(=O)N2CCCC[C@H]2C(=O)O[C@H]([C@H](C)C[C@@H]2CC[C@@H](OCCO)[C@H](OC)C2)CC(=O)[C@H](C)/C=C(\C)[C@@H](O)[C@@H](OC)C(=O)[C@H](C)C[C@H](C)/C=C/C=C/C=C/1C [EVL, everolimus]
[1]
  inhibitory / antiviral effect in CPE reduction assay: did not show an inhibitory effect
